Measurements reported in US6638531B1, “Antimicrobial peptides” (priority 1998, dated 2003).
Values after ≈ are worked out from the molar mass of the structure shown. Marks after values point to notes of the source that are not given here. Where no end group is shown, it is not given here.

Tests used:
[1] = system: Candida albicans; assay: Growth inhibition on agar with spotted peptide; assay type: cell-based; set-up: key: “+” designates full growth inhibition; “+/−” designates partial inhibition; “−” signifies no inhibition; conditions: C. albicans on agar, 10 μg peptide spotted
Method: (§1) The growth of the yeast Candida albicans, Torulopsis glabrata and meticillin-resistant Staphylococcus aureus (MRSA) was tested by growing them on agar on which 10 μg of each of the peptides according to the invention was spotted. […] “+” designates full growth inhibition, “+/−” designates partial inhibition and “−” signifies no inhibition.

[2] = system: Torulopsis glabrata; assay: Growth inhibition on agar with spotted peptide; assay type: cell-based; set-up: key: “+” designates full growth inhibition; “+/−” designates partial inhibition; “−” signifies no inhibition; conditions: T. glabrata on agar, 10 μg peptide spotted
Method: as §1

[3] = system: meticillin-resistant Staphylococcus aureus (MRSA); assay: Growth inhibition on agar with spotted peptide; assay type: cell-based; set-up: key: “+” designates full growth inhibition; “+/−” designates partial inhibition; “−” signifies no inhibition; conditions: 10 μg peptide spotted
Method: as §1

[4] = system: Lactobacillus rhamnosus; assay: Inhibition of lactic acid production; assay type: cell-based; conditions: L. rhamnosus; 1 hour in 10 mM PPB with glucose
Method: (§2) All peptides according to the invention were tested for their capacity to inhibit the lactic acid production of the bacteria Streptococcus sanguis, Streptococcus mutans, Streptococcus salivarius and Lactobacillus rhamnosus. The formation of lactic acid is a measure for the metabolic activity. For this purpose cultures of bacteria cells were incubated for 1 hour in 10 mM PPB with 0.5 glucose and different concentrations of the peptides. The formation of lactic acid was monitored by means of spectrophotometry.

[5] = system: Streptococcus mutans; assay: Inhibition of lactic acid production; assay type: cell-based; conditions: S. mutans; 1 hour in 10 mM PPB with glucose
Method: as §2

[6] = system: Streptococcus salivarius; assay: Inhibition of lactic acid production; assay type: cell-based; conditions: S. salivarius; 1 hour in 10 mM PPB with glucose
Method: as §2

[7] = system: Streptococcus sanguis; assay: Inhibition of lactic acid production; assay type: cell-based; conditions: S. sanguis; 1 hour in 10 mM PPB with glucose
Method: as §2

[8] = system: Salmonella typhimurium; assay: Killing of Salmonella by peptide 10 (CFU over time); assay type: cell-based; conditions: 50 μg/ml, culture with 10^4 Salmonella typhimurium, CFU at 0, 1, 2 and 3 hours (FIG. 3A)
Method: (§3) Peptide 10 was added in a concentration of 50 μg/ml to a culture with 10^4 Salmonella typhimurium bacteria. For control purposes a culture to which nothing was added was included as blank. The number of CFU was determined at the points in time 0, 1, 2 and 3 hours. The same was done with Yersinia enterocolitica (PYv+). […] Particular peptides are also found to have a killing effect on micro-organisms which are resistant to antimicrobial agents used at present.

[9] = system: Yersinia enterocolitica (PYv+); assay: Killing of Yersinia by peptide 10 (CFU over time); assay type: cell-based; conditions: 50 μg/ml, CFU at 0, 1, 2 and 3 hours (FIG. 3B)
Method: as §3

[10] = system: Candida albicans 10231; assay: microbe, parasite or virus in culture
Method: (§4) 5*10^6 cells of Candida pseudotropicalis, Candida albicans 10231, Cryptococcus neoformans, Candida krusei, Candida parapsilosis, Candida glabrata and Candida albicans 32354 and an ergosterol-deficient mutant thereof were incubated for one and a half hours at 37° C. in the presence of a dilution series of a peptide according to the invention or amphotericin B in 1 mM potassium phosphate buffer, pH 7.0. The viability was determined by plating out. Used as positive control was synthetic PGLa (“Protein beginning with Glycine and ending with Leucin-amide”, with the amino acid sequence […]-amide).

[11] = system: Candida albicans 32354; assay: microbe, parasite or virus in culture
Method: as §4

[12] = system: Candida glabrata; assay: microbe, parasite or virus in culture
Method: as §4

[13] = system: Candida krusei; assay: microbe, parasite or virus in culture
Method: as §4

[14] = system: Candida parapsilosis; assay: microbe, parasite or virus in culture
Method: as §4

[15] = system: Candida pseudotropicalis; assay: microbe, parasite or virus in culture
Method: as §4

[16] = system: Cryptococcus neoformans; assay: microbe, parasite or virus in culture
Method: as §4

[17] = system: Candida albicans 32354, ergosterol-deficient mutant; assay: Killing of yeasts; assay type: cell-based; conditions: pH 7, read-out: IC50 values (50% of the inoculum is killed)
Method: as §4

[18] = system: Actinomyces naeslundii (WVU 627); assay: Antibacterial activity against monocultures in vitro (viability counts); assay type: cell-based; conditions: 0.5 h, 100 μg/ml
Method: (§5) Monocultures of the bacteria Streptococcus mutans (R9), Strentococcus sanguis (SB 179), Streptococcus salivarius (SS 196), Actinomyces naeslundii (WVU 627), Fusobacterium nucleatum (ATCC 10953), Prevotella intermedia ([…]) and Veillonella parvula (ATCC 17745) were cultured to a late log phase in BHI (Difco), washed three times in 10 mM potassium phosphate buffer (PPB) and diluted to a suspension of 10^6 CFU/ml. […] The control treatment was performed in 10 mM without peptide.

[19] = system: Fusobacterium nucleatum (ATCC 10953); assay: as above; assay type: cell-based; conditions: 0.5 h, 100 μg/ml
Method: as §5

[20] = system: Prevotella intermedia (T588); assay: as above; assay type: cell-based; conditions: 0.5 h, 100 μg/ml
Method: as §5

[21] = system: Strentococcus sanguis (SB 179); assay: as above; assay type: cell-based; conditions: Streptococcus sanguis, 0.5 h, 100 μg/ml
Method: as §5

[22] = system: Streptococcus mutans (R9); assay: as above; assay type: cell-based; conditions: 0.5 h, 100 μg/ml
Method: as §5

[23] = system: Streptococcus salivarius (SS 196); assay: as above; assay type: cell-based; conditions: 0.5 h, 100 μg/ml
Method: as §5

[24] = system: Veillonella parvula (ATCC 17745); assay: as above; assay type: cell-based; conditions: 0.5 h, 100 μg/ml
Method: as §5

[25] = system: bacteria collected from plaque; assay: Antimicrobial activity on oral bacteria; assay type: cell-based; conditions: 0.5 h, 100 μg/ml
From the text: (§6) In order to determine whether the peptides according to the invention are also active against bacteria such as are encountered in the mouth, bacteria were collected from saliva and plaque. Saliva was shaken on a vortex mixer and centrifuged.

[26] = system: bacteria collected from saliva; assay: Antimicrobial activity on oral bacteria; assay type: cell-based; conditions: 0.5 h, 100 μg/ml
From the text: as §6

[27] = system: bacteria from cultured plaque; assay: Antimicrobial activity on oral bacteria; assay type: cell-based; conditions: 0.5 h, 100 μg/ml
From the text: as §6

[28] = system: bacteria from disrupted plaque; assay: Antimicrobial activity on oral bacteria; assay type: cell-based; conditions: 0.5 h, 100 μg/ml
From the text: as §6

## KRLFKKLLFSLRKY [peptide 10, KRLFKKLLFSLRKY]
[1]
  growth inhibition: +
[2]
  growth inhibition: +
[3]
  growth inhibition: +
[4]
  inhibition of lactic acid production: + (“+” designates full inhibition at 4-20 μg/ml peptide)
[5]
  inhibition of lactic acid production: + (“+” designates full inhibition at 4-20 μg/ml peptide)
[6]
  inhibition of lactic acid production: + (“+” designates full inhibition at 4-20 μg/ml peptide)
[7]
  inhibition of lactic acid production: + (“+” designates full inhibition at 4-20 μg/ml peptide)
[8]
  number of bacteria (CFU) after adding peptide: below the detection limit
[9]
  number of bacteria (CFU) after adding peptide: below the detection limit

## C[C@@H]1[C@H](O)[C@@H](C)/C=C/C=C/C=C/C=C/C=C/C=C/C=C/[C@H](O[C@@H]2O[C@H](C)[C@@H](O)[C@H](N)[C@@H]2O)C[C@@H]2O[C@](O)(C[C@@H](O)C[C@@H](O)[C@H](O)CC[C@@H](O)C[C@@H](O)CC(=O)O[C@H]1C)C[C@H](O)[C@H]2C(=O)O [amphotericin B]
[10]; Candida albicans, 10231, pH 7, read-out: IC50 values (50% of the inoculum is killed)
  IC50: 1 µg/mL (≈ 1.08 µM)
[11]; Candida albicans, 32354, pH 7, read-out: IC50 values (50% of the inoculum is killed)
  IC50: 2 µg/mL (≈ 2.16 µM)
[12]; Nakaseomyces glabratus, pH 7, read-out: IC50 values (50% of the inoculum is killed)
  IC50: 2 µg/mL (≈ 2.16 µM)
[13]; Pichia kudriavzevii, pH 7, read-out: IC50 values (50% of the inoculum is killed)
  IC50: > 70 µg/mL
[14]; Lodderomyces parapsilosis, pH 7, read-out: IC50 values (50% of the inoculum is killed)
  IC50: 6 µg/mL (≈ 6.49 µM)
[15]; Kluyveromyces marxianus, pH 7, read-out: IC50 values (50% of the inoculum is killed)
  IC50: 8 µg/mL (≈ 8.66 µM)
[16]; Cryptococcus neoformans, pH 7, read-out: IC50 values (50% of the inoculum is killed)
  IC50: 1 µg/mL (≈ 1.08 µM)
[17]
  IC50: > 70 µg/mL

## GHMASKGAIAGKIAKVALKAL-NH2 [positive control peptide]
[18]
  % reduction in viability counts: >99.9* %
[19]
  % reduction in viability counts: >99.9* %
[20]
  % reduction in viability counts: 98.0%
[21]
  % reduction in viability counts: >99.9* %
[22]
  % reduction in viability counts: >99.9%
[23]
  % reduction in viability counts: >99.9* %
[24]
  % reduction in viability counts: >99.9* %
[10]; 10231, pH 7
  IC50 values (50% of the inoculum is killed): 1 µg/mL
[11]; 32354, pH 7
  IC50 values (50% of the inoculum is killed): 1 µg/mL
[12]; pH 7
  IC50 values (50% of the inoculum is killed): 9 µg/mL
[13]; pH 7
  IC50 values (50% of the inoculum is killed): 1 µg/mL
[14]; pH 7
  IC50 values (50% of the inoculum is killed): 1 µg/mL
[15]; pH 7
  IC50 values (50% of the inoculum is killed): 1 µg/mL
[16]; pH 7
  IC50 values (50% of the inoculum is killed): 0.5 µg/mL
[25]
  % reduction in viability counts, total Gram-negative average: 84.0%
  % reduction in viability counts, total aerobic average: 58.5%
  % reduction in viability counts, total anaerobic average: 51.5%
[26]
  % reduction in viability counts, total Gram-negative average: 97.7%
  % reduction in viability counts, total aerobic average: 60.1%
  % reduction in viability counts, total anaerobic average: 73.2%
[27]
  % reduction in viability counts, total Gram-negative average: 83.7%
  % reduction in viability counts, total aerobic average: 20.6%
  % reduction in viability counts, total anaerobic average: 87.2%
[28]
  % reduction in viability counts, total Gram-negative average: 45.9%
  % reduction in viability counts, total aerobic average: 41.7%
  % reduction in viability counts, total anaerobic average: 68.5%
